Source: ChEMBL document CHEMBL5465560, “Selectivity Literature for EUbOPEN Chemogenomic Library” (2024)
Values belong to the compound of their own block, whether it stands above or below them.

Experiments:
[1] = molecular target: Tyrosine-protein kinase receptor UFO (Homo sapiens) (UniProt P30530); settings: at 10 µM
[2] = molecular target: T1, Dual specificity mitogen-activated protein kinase kinase 6 (Homo sapiens) (UniProt P52564); settings: at 10 µM
T1 sequence (whole entry): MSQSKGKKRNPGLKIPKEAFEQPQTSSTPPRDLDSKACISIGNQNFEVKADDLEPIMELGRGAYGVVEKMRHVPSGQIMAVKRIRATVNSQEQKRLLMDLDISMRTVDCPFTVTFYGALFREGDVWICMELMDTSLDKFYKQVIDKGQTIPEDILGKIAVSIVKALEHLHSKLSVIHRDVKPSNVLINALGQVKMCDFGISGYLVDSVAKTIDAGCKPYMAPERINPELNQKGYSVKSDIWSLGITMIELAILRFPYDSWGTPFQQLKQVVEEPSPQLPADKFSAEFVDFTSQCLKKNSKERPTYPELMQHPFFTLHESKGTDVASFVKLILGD

[3] = molecular target: 5-hydroxytryptamine receptor 1B (Homo sapiens) (UniProt P28222); assay: Selectivity interaction (GPCR panel (PDSP screen)) EUB0001079a HTR1B; settings: at 10 µM
[4] = Selectivity interaction (KinomeScan (DiscoverX)) EUB0000618a CDPK1; settings: at 10 µM
[5] = molecular target: T2, Tyrosine-protein kinase ZAP-70 (Homo sapiens) (UniProt P43403); assay: Selectivity interaction (KinomeScan (DiscoverX)) EUB0000045b ZAP70; settings: at 1 µM
T2 sequence (whole entry): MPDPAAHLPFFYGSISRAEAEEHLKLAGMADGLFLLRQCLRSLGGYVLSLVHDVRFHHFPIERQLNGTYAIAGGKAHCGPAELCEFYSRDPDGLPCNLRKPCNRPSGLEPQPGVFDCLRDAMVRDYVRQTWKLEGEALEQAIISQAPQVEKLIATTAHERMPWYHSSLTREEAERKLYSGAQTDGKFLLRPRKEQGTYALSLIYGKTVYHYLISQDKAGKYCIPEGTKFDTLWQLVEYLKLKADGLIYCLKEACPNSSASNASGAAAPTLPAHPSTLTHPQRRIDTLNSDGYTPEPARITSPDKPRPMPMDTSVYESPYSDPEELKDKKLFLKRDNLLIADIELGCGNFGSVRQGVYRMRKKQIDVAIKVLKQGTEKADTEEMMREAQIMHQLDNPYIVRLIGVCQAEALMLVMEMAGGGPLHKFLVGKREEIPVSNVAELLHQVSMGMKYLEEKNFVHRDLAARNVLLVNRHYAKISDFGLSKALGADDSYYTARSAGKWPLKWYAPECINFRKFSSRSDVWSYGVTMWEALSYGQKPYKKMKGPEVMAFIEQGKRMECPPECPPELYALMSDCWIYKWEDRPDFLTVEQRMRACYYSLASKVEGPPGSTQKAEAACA

[6] = molecular target: T3, Serine/threonine-protein kinase BRSK1 (Homo sapiens) (UniProt Q8TDC3); settings: at 10 µM
T3 sequence (whole entry): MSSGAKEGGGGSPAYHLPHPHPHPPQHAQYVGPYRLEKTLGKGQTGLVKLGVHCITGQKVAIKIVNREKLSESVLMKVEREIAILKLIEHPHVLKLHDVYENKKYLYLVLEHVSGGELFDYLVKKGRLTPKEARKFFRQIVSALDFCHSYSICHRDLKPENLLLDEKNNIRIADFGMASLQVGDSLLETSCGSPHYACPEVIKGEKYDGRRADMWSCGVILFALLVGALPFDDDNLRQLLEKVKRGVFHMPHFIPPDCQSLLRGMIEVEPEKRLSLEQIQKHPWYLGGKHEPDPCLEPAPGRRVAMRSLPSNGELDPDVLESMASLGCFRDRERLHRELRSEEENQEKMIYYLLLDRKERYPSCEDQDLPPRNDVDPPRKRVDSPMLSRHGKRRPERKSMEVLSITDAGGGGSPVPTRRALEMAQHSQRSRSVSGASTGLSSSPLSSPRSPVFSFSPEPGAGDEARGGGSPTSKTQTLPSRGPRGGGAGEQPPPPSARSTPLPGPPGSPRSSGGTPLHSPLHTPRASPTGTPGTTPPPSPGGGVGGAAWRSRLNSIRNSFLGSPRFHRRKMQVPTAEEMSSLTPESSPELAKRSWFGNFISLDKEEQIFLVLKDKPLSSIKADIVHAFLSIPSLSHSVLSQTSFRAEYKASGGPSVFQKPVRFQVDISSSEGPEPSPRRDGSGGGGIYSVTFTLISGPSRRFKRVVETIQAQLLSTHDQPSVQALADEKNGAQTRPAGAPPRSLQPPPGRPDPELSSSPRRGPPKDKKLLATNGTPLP

[7] = molecular target: T4, Tyrosine-protein kinase Tec (Homo sapiens) (UniProt P42680); assay: Selectivity interaction (ProQinase) EUB0000171b TEC
T4 sequence (whole entry): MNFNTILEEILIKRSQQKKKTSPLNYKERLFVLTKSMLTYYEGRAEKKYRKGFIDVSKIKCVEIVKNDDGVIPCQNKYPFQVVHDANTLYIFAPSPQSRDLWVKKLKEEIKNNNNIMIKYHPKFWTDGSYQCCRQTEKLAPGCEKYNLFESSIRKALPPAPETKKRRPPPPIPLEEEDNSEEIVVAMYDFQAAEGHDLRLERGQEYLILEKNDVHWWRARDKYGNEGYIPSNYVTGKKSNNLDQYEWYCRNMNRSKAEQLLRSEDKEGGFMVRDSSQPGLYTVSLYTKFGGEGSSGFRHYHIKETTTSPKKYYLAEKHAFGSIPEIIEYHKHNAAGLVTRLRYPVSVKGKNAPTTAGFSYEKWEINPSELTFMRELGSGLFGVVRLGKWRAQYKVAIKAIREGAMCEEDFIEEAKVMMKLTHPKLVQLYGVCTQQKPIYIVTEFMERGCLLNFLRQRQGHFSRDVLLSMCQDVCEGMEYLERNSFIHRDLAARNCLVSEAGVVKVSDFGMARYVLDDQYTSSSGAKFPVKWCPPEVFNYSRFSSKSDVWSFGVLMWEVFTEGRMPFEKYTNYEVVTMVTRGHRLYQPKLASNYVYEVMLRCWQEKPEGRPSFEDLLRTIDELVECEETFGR

Sequence of 5-hydroxytryptamine receptor 1B (Homo sapiens) (P28222 whole entry): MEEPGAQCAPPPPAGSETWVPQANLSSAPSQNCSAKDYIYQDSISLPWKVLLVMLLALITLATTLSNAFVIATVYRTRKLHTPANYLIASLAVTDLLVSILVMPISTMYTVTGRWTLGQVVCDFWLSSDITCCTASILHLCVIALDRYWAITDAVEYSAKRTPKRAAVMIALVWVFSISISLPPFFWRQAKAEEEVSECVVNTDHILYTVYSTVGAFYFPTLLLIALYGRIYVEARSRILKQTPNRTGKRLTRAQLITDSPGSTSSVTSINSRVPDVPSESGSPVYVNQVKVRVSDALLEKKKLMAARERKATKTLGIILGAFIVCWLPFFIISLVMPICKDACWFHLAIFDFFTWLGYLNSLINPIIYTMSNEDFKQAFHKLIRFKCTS
Sequence of Tyrosine-protein kinase receptor UFO (Homo sapiens) (P30530 whole entry): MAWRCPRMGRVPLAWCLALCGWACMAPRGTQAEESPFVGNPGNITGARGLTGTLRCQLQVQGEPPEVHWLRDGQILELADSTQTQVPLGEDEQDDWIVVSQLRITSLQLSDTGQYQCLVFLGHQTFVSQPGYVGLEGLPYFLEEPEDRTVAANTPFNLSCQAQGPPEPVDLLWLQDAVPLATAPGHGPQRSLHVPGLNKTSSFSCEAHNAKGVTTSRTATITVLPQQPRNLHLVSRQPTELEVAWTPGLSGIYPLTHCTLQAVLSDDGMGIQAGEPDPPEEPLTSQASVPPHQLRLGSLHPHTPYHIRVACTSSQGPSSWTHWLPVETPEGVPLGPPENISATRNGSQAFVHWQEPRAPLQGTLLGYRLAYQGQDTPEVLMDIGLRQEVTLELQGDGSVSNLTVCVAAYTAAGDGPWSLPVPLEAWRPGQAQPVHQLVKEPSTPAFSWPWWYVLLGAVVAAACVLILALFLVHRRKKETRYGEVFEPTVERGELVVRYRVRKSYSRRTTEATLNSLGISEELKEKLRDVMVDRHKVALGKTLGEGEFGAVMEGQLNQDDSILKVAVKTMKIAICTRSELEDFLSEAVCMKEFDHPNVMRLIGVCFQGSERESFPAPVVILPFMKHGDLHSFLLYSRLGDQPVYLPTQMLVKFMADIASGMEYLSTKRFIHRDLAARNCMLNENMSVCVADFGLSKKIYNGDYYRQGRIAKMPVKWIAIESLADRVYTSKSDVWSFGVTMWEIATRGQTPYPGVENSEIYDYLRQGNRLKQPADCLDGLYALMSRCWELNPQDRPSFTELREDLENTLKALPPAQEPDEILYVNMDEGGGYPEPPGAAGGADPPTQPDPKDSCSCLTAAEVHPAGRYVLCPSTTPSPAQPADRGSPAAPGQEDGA

% of control [1]: 100%
% of control [2]: 100%
SMILES: CCN(CC)CCCCNc1ncc2cc(-c3cc(OC)cc(OC)c3)c(NC(=O)NC(C)(C)C)nc2n1

SMILES: Nc1cnc(N2CCc3cc(S(=O)(=O)Nc4c(F)cc(Cl)cc4F)cc(N4CCCC4=O)c32)nc1 [TP-020n]
% of inhibition [3]: -3.82%

SMILES: O[C@H]1CC[C@H](Nc2ncc3nc(Nc4c(F)cc(F)cc4F)n([C@H]4CCOC4)c3n2)CC1
% of control [4]: 1.5%

SMILES: C=CC(=O)Nc1cc(-n2c(=O)ccc3cnc4ccc(-c5ccc(NS(C)(=O)=O)cc5)cc4c32)ccc1C
% of control [5]: 91%

SMILES: Cc1cc([C@@H](C)Nc2ccccc2C(=O)O)c2nc(N3CCOCC3)cc(=O)n2c1 [AZD-6482]
% of control [6]: 99%

% of control ([7]; at 1 µM): 99%
% of control ([7]; at 5 µM): 81%
SMILES: C=CC(=O)Nc1cccc(C(=O)Nc2ccc(Nc3cc(-c4[nH]c(SC)nc4C)ccn3)cc2)c1
